Reference: patent US20250288583A1, “Treatment of Mucus Hypersecretion” (priority 2024, published 2025)

Key:
hTRPM8 channel = target: T1, hTRPM8 channel (Homo sapiens, UniProt Q7Z2W7); assay: TRPM8 receptor assay, calcium entry (Fluo-8, FLIPR) in transfected CHO cells; type: cell-based; settings: for Potency Relative to L-menthol: ratio of TRPM8 EC50 values, menthol = 1.0
T1 construct: host or cells: CHO cells

oral cavity = settings: Johnson et al., 2018; cited from earlier work
Stability of the solid = type: physicochemical; settings: room temperature and physiological pH

T1 sequence (Q7Z2W7 whole entry): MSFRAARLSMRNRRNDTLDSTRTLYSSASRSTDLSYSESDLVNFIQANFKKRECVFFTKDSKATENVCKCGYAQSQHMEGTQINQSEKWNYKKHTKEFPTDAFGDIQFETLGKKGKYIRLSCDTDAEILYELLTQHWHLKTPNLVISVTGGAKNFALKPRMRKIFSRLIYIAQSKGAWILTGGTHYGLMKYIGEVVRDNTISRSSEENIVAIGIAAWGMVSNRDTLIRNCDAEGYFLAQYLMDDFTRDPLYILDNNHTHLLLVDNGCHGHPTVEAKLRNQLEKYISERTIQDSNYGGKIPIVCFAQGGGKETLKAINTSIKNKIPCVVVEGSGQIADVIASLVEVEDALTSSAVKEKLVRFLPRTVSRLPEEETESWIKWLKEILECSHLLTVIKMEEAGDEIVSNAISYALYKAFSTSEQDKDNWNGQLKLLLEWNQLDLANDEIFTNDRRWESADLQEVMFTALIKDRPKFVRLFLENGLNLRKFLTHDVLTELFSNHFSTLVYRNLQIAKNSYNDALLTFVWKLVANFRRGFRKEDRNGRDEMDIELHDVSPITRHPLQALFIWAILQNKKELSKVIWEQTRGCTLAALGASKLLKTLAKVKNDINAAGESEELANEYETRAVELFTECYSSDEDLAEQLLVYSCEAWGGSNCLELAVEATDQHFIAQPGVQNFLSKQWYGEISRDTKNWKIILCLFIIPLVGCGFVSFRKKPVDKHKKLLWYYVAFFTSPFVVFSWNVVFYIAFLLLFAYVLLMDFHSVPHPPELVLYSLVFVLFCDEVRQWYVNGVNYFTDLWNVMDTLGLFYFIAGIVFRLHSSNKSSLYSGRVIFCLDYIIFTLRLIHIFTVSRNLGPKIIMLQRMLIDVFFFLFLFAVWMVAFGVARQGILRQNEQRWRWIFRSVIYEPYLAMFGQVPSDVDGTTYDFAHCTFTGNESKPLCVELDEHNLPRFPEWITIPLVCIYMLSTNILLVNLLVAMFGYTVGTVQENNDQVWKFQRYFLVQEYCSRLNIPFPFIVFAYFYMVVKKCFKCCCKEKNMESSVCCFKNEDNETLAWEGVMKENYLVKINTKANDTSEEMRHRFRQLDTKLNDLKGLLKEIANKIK

Structure (SMILES) | EC50 (hTRPM8 channel; CHO cells transfected with hTRPM8, Fluo-8 calcium kit, FLIPR) [nM] | Potency Relative to L-menthol (hTRPM8 channel) | Activity on TRPM8 transfected cells (hTRPM8 channel; FIG. 5) | Sensory qualities in the oral cavity compared with WS-5 (oral cavity) | Stability (Stability of the solid)
CC(C)OC(=O)[C@@H](C)NC(=O)[C@@H]1C[C@H](C)CC[C@H]1C(C)C [D-Ala-OiPr, (R)-2-[((1R,2S,5R)-2-isopropyl-5-methyl-cyclohexanecarbonyl)amino]-propionic acid i-propyl ester] | 260 | 14.6 |  |  | 
CC(C)OC(=O)CNC(=O)[C@@H]1C[C@H](C)CC[C@H]1C(C)C [GlyOiPr, [((1R,2S,5R)-2-isopropyl-5-methyl-cyclohexanecarbonyl)-amino]-acetic acid isopropyl ester] |  | 7.6 | active | more refreshing and less bitter than WS-5 | stable at room temperature and physiological pH
